{"source": "paper PMC9142968", "about": "“Nitro-Group-Containing Thiopeptide Derivatives as Promising Agents to Target Clostridioides difficile” (Pharmaceuticals, 2022)", "key": {"E. coli": {"tested_on": "E. coli", "test": "MIC against Gram-positive/Gram-negative panel", "type": "cell-based", "conditions": "Escherichia coli, ATCC25922"}, "P. aeruginosa": {"tested_on": "P. aeruginosa", "test": "MIC against Gram-positive/Gram-negative panel", "type": "cell-based", "conditions": "Pseudomonas aeruginosa, ATCC27853"}, "E. faecium": {"tested_on": "E. faecium", "test": "MIC against Gram-positive/Gram-negative panel", "type": "cell-based", "conditions": "Enterococcus faecium"}, "S. aureus": {"tested_on": "S. aureus", "test": "MIC against Gram-positive/Gram-negative panel", "type": "cell-based", "conditions": "Staphylococcus aureus"}, "A. baumannii": {"tested_on": "A. baumannii", "test": "MIC against Gram-positive/Gram-negative panel", "type": "cell-based", "conditions": "Acinetobacter baumannii, ATCC17904"}, "K. pneumoniae": {"tested_on": "K. pneumoniae", "test": "MIC against Gram-positive/Gram-negative panel", "type": "cell-based", "conditions": "Klebsiella pneumoniae, ATCC10031"}, "E. faecalis": {"tested_on": "E. faecalis", "test": "MIC against Gram-positive/Gram-negative panel", "type": "cell-based", "conditions": "Enterococcus faecalis"}, "in vitro": {"test": "in vitro", "conditions": "human, plasma"}, "Plasma stability": {"test": "Plasma stability", "type": "in vitro ADME", "conditions": "human plasma, 30 min; read-out: PS % Remaining (30 min)", "protocol": "No significant metabolic liabilities were noted. Incubation of AJ-024 for 30 min with human liver microsomes and with human plasma proteins returned 63.8% and 95.9% of unchanged compound, respectively."}, "CYP2C19": {"target": "CYP2C19 (Homo sapiens, UniProt P33261)", "sequence (P33261 whole entry)": "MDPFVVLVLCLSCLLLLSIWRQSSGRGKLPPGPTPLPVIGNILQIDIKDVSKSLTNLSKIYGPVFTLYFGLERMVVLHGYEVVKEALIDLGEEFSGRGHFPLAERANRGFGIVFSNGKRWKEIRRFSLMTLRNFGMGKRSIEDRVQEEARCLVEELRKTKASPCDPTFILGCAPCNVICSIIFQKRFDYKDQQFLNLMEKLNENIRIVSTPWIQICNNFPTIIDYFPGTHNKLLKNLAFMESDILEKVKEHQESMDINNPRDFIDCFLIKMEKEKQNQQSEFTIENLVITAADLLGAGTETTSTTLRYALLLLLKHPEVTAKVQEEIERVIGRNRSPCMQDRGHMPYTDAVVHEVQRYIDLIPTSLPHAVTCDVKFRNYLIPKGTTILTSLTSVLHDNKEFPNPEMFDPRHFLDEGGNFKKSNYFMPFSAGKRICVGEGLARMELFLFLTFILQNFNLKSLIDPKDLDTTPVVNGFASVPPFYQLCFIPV", "test": "Inhibition of CYP enzyme activity (S-mephenytoin probe)", "conditions": "test compound 10 uM; activity expressed as percentage of control"}, "C. difficile [1]": {"tested_on": "C. difficile", "conditions": "treatment of CDI; background statement of the introduction; cited from earlier work"}, "[2]": {"tested_on": "C. difficile ribotype 027", "test": "Time-kill assay", "type": "cell-based, Clostridioides difficile", "conditions": "C. difficile ribotype 027, at 1×, 2× and 4× MIC; bactericidal = ≥3 log10 CFU/mL reduction vs starting inoculum", "protocol": "The time-kill studies were performed by the CLSI method. […] Vancomycin was diluted in distilled water and AJ-024 was diluted in 1% (v/v) DMSO. […] Samples were removed at 0, 3, 6, and 24 h post inoculation, and serial 10-fold dilutions were performed. The number of viable cells were determined on BHI agar containing 0.5% yeast extract and 5% defibrinated sheep blood after 24 h of incubation. The plates were incubated at 37 ℃ in an anaerobic chamber. Antimicrobials were considered bactericidal at the lowest concentration that reduced the original inoculum by 3 log 10 CFU/mL at each of the time periods and bacteriostatic if the inoculum was reduced by 0 to 3 log 10 CFU/mL."}, "C. difficile [3]": {"tested_on": "C. difficile", "test": "MIC by agar dilution, representative C. difficile strains", "type": "cell-based", "conditions": "Clostridioides difficile"}, "[4]": {"tested_on": "C. difficile clinical isolates", "test": "MIC by agar dilution, classified C. difficile clinical isolates (South Korea)", "type": "cell-based, Clostridioides difficile"}, "[5]": {"tested_on": "C. difficile ribotype 027", "test": "Mouse IBD-C. difficile comorbidity infection model", "type": "in vivo", "conditions": "mice, DSS-induced IBD + C. difficile ribotype 027, 30 mg/kg once daily oral gavage, observed period of 15 days", "protocol": "C. difficile ribotype 027 was grown on blood agar plate and incubated for two days at 37 ℃ in an anaerobic chamber and sub-cultured on 70:30 sporulation medium to facilitate the sporulation of C. difficile ribotype 027. Briefly, the sporulation medium consists of 70% SMC (Bacto peptone 90 g, protease peptone 5 g, NH4SO4 1 g, tris base 1.5 g, agar 15 g per liter) and 30% BHIS (BHI agar with 0.5% yeast extract) agar. For inoculation, bacterial colonies were suspended in 0.9% saline solution and further diluted with saline solutions to adjust OD (Optical Density) 1.0 at 1/10 of original saline solutions. Groups of five male C57BL/6J mice were injected orally with a single 0.5 mL dose of the bacterial suspension.\nAll animal experiments were conducted in accordance with the ethical guidelines of the Ethics Review Committee for Animal Experimentation at Handong Global University (Republic of Korea, protocol #HGU-20211214-20). C57BL/6J male (4-week-old male weighing 20 to 22 g, Daehan Bio Link Co., Ltd., Eumseong, Korea) 5 mouse per group was used in C. difficile infection model. Mice were maintained in animal chambers kept at 23 ± 2 ℃ with 55% ± 20% relative humidity. An amount of 2% dextran sodium sulfate (DSS, MP biomedical, Irvine, CA, USA) was inoculated by drinking water for 5 days to cause colitis in mice. […]"}, "[6]": {"conditions": "E. coli ATCC 25922, read-out: MIC"}, "[7]": {"conditions": "P. aeruginosa ATCC 27853, read-out: MIC"}, "[8]": {"conditions": "ATCC19434, E. faecium ATCC 19434, read-out: MIC"}, "[9]": {"conditions": "E. faecium clinical isolate, read-out: MIC"}, "[10]": {"conditions": "ATCC25923, S. aureus ATCC 25923, read-out: MIC"}, "[11]": {"conditions": "ATCC43300, S. aureus ATCC 43300, read-out: MIC"}, "[12]": {"conditions": "S. aureus clinical isolate, read-out: MIC"}, "[13]": {"conditions": "A. baumannii ATCC 17904, read-out: MIC"}, "[14]": {"conditions": "K. pneumoniae ATCC 10031, read-out: MIC"}, "[15]": {"conditions": "ATCC29212, E. faecalis ATCC 29212, read-out: MIC"}, "[16]": {"conditions": "E. faecalis clinical isolate, read-out: MIC"}}, "note": "Read-outs that look alike come from different tables or passages of the source.", "data": [{"compound": "CC=C(NC(=O)c1csc(-c2csc(-c3ccc4c(n3)-c3csc(n3)C(C(C)O)NC(=O)c3csc(n3)C(C(C)C)NC(=O)c3csc(n3)C(=CC)NC(=O)C(C(C)O)NC(=O)c3csc-4n3)n2)n1)C(=O)NCCn1c([N+](=O)[O-])cnc1C", "note": "(centres unmarked) [AJ-024]", "values": [{"measurement": "MIC", "setting": "E. coli; [6]", "value": "> 32", "unit": "µg/mL"}, {"measurement": "MIC", "setting": "P. aeruginosa; [7]", "value": "> 32", "unit": "µg/mL"}, {"measurement": "MIC", "setting": "E. faecium; [8]", "value": 0.25, "unit": "µg/mL"}, {"measurement": "MIC", "setting": "E. faecium; [9]", "value": 0.5, "unit": "µg/mL"}, {"measurement": "MIC", "setting": "S. aureus; [10]", "value": 0.25, "unit": "µg/mL"}, {"measurement": "MIC", "setting": "S. aureus; [11]", "value": 0.25, "unit": "µg/mL"}, {"measurement": "MIC", "setting": "S. aureus; [12]", "value": 0.5, "unit": "µg/mL"}, {"measurement": "MIC", "setting": "A. baumannii; [13]", "value": "> 32", "unit": "µg/mL"}, {"measurement": "MIC", "setting": "K. pneumoniae; [14]", "value": "> 32", "unit": "µg/mL"}, {"measurement": "MIC", "setting": "E. faecalis; [15]", "value": 0.25, "unit": "µg/mL"}, {"measurement": "MIC", "setting": "E. faecalis; [16]", "value": 0.25, "unit": "µg/mL"}]}, {"compound": "C[C@@H]1C[C@H]2[C@@H]3CCC4=CC(=O)C=C[C@]4(C)[C@@]3(F)[C@@H](O)C[C@]2(C)[C@@]1(O)C(=O)CO", "note": "[Dexamethasone, reference compound]", "values": [{"measurement": "fraction unbound at 4 h, 10 μM", "setting": "in vitro", "value": 0.212}]}, {"compound": "CCOC(=O)[C@H](CCc1ccccc1)N[C@@H](C)C(=O)N1CCC[C@H]1C(=O)O", "note": "[Enalapril]", "values": [{"measurement": "remaining at 0.5 h", "setting": "Plasma stability", "value": 95.2, "unit": "%"}]}, {"compound": "CC(=O)N1CCN(c2ccc(OCC3COC(Cn4ccnc4)(c4ccc(Cl)cc4Cl)O3)cc2)CC1", "note": "(centres unmarked) [Ketoconazole, reference compound]", "values": [{"measurement": "CYP Inhibition 2C19", "setting": "CYP2C19", "value": 97.6}]}, {"compound": "CC(=O)NC[C@H]1CN(c2ccc(N3CCOCC3)c(F)c2)C(=O)O1", "note": "[LIZ, Linezolid]", "values": [{"measurement": "MIC", "setting": "E. coli; [6]", "value": "> 32", "unit": "µg/mL"}, {"measurement": "MIC", "setting": "P. aeruginosa; [7]", "value": "> 32", "unit": "µg/mL"}, {"measurement": "MIC", "setting": "E. faecium; [8]", "value": 2, "unit": "µg/mL"}, {"measurement": "MIC", "setting": "E. faecium; [9]", "value": 2, "unit": "µg/mL"}, {"measurement": "MIC", "setting": "S. aureus; [10]", "value": 2, "unit": "µg/mL"}, {"measurement": "MIC", "setting": "S. aureus; [11]", "value": 2, "unit": "µg/mL"}, {"measurement": "MIC", "setting": "S. aureus; [12]", "value": 1, "unit": "µg/mL"}, {"measurement": "MIC", "setting": "A. baumannii; [13]", "value": "> 32", "unit": "µg/mL"}, {"measurement": "MIC", "setting": "K. pneumoniae; [14]", "value": "> 32", "unit": "µg/mL"}, {"measurement": "MIC", "setting": "E. faecalis; [15]", "value": 2, "unit": "µg/mL"}, {"measurement": "MIC", "setting": "E. faecalis; [16]", "value": 4, "unit": "µg/mL"}]}, {"compound": "CCN(CC)CCOC(=O)c1ccc(N)cc1", "note": "[Procaine]", "values": [{"measurement": "remaining at 0.5 h", "setting": "Plasma stability", "value": 1.4, "unit": "%"}]}, {"compound": "CN[C@H](CC(C)C)C(=O)N[C@H]1C(=O)N[C@@H](CC(N)=O)C(=O)N[C@H]2C(=O)N[C@H]3C(=O)N[C@H](C(=O)N[C@H](C(=O)O)c4cc(O)cc(O)c4-c4cc3ccc4O)[C@H](O)c3ccc(c(Cl)c3)Oc3cc2cc(c3O[C@@H]2O[C@H](CO)[C@@H](O)[C@H](O)[C@H]2O[C@H]2C[C@](C)(N)[C@H](O)[C@H](C)O2)Oc2ccc(cc2Cl)[C@H]1O", "note": "[Vancomycin]", "values": [{"measurement": "MIC", "setting": "E. coli", "value": "> 32", "unit": "µg/mL"}, {"measurement": "Rate of relapse", "setting": "C. difficile [1]", "value": "25% to 30%"}, {"measurement": "Killing activity (bactericidal / bacteriostatic)", "setting": "[2]", "value": "bacteriostatic"}, {"measurement": "MIC", "setting": "P. aeruginosa", "value": "> 32", "unit": "µg/mL"}, {"measurement": "MIC", "setting": "E. faecium", "value": "> 32", "unit": "µg/mL"}, {"measurement": "MIC", "setting": "E. faecium; ATCC19434", "value": 1, "unit": "µg/mL"}, {"measurement": "MIC", "setting": "S. aureus", "value": "> 32", "unit": "µg/mL"}, {"measurement": "MIC", "setting": "S. aureus; ATCC25923", "value": 0.5, "unit": "µg/mL"}, {"measurement": "MIC", "setting": "S. aureus; ATCC43300", "value": 0.5, "unit": "µg/mL"}, {"measurement": "MIC", "setting": "C. difficile [3]; ATCC9689", "value": 1, "unit": "µg/mL"}, {"measurement": "MIC", "setting": "C. difficile [3]; ATCC17858", "value": 1, "unit": "µg/mL"}, {"measurement": "MIC", "setting": "C. difficile [3]; ATCC43255", "value": 1, "unit": "µg/mL"}, {"measurement": "MIC", "setting": "C. difficile [3]; ATCC51695", "value": 1, "unit": "µg/mL"}, {"measurement": "MIC", "setting": "C. difficile [3]; ATCCBAA1871", "value": 1, "unit": "µg/mL"}, {"measurement": "MIC range", "setting": "[4]", "value": "0.5 to 2", "unit": "µg/mL"}, {"measurement": "MIC50", "setting": "[4]; Clostridioides difficile", "value": 1, "unit": "µg/mL"}, {"measurement": "MIC", "setting": "A. baumannii", "value": "> 32", "unit": "µg/mL"}, {"measurement": "MIC", "setting": "K. pneumoniae", "value": "> 32", "unit": "µg/mL"}, {"measurement": "MIC", "setting": "E. faecalis", "value": "> 32", "unit": "µg/mL"}, {"measurement": "MIC", "setting": "E. faecalis; ATCC29212", "value": 0.5, "unit": "µg/mL"}, {"measurement": "Survival rate", "setting": "[5]", "value": 80, "unit": "%"}]}]}
